Read-outs that look alike come from different tables or passages of the source.
What was measured:
[1] = tested on: INSTI-resistant HIV-1 mutants (HXB2); assay: microbe, parasite or virus in culture; assay type: cell-based
[2] = tested on: inhibitor-selected HIV-1 IIIb passages; assay: Phenotypic profile of selected HIV-1 passages; assay type: cell-based; conditions: for EC50: Human immunodeficiency virus 1, IIIB
[3] = tested on: HIV-1 BaL; conditions: primary CD4+ T-cells, 35 days, drug at tissue culture equivalent clinical Cmin (FTC 160 × EC50)

## Cc1nnc(C(=O)NC(C)(C)c2nc(C(=O)NCc3ccc(F)cc3)c(O)c(=O)n2C)o1 [RAL, raltegravir]
[1]; Human immunodeficiency virus 1, HXB2, IN mutant E92Q
  EC50: 0.038 ± 0.009 µM
[1]; Human immunodeficiency virus 1, HXB2, IN mutant E92Q/N155H
  EC50: 0.624 ± 0.213 µM
[1]; Human immunodeficiency virus 1, HXB2, IN mutant E138K/Q148K
  EC50: 1.53 µM
[1]; Human immunodeficiency virus 1, HXB2, IN mutant G140S/Q148R
  EC50: 2.46 µM
[1]; Human immunodeficiency virus 1, HXB2, IN mutant M50I (BIC/DTG selection)
  EC50: 0.0074 ± 0.0017 µM
[1]; Human immunodeficiency virus 1, HXB2, IN mutant M50I/R263K (BIC selection)
  EC50: 0.0077 ± 0.0021 µM
[1]; Human immunodeficiency virus 1, HXB2, IN mutant M50I/S119R/R263K (DTG selection)
  EC50: 0.019 ± 0.007 µM
[1]; Human immunodeficiency virus 1, HXB2, IN mutant N155H
  EC50: 0.188 ± 0.037 µM
[1]; Human immunodeficiency virus 1, HXB2, IN mutant N155H/Q148R
  EC50: 2.18 µM
[1]; Human immunodeficiency virus 1, HXB2, IN mutant Q148R
  EC50: 0.427 ± 0.052 µM
[1]; Human immunodeficiency virus 1, HXB2, IN mutant R263K (BIC/DTG selection), Table 7
  EC50: 0.0077 ± 0.0012 µM
[1]; Human immunodeficiency virus 1, HXB2, IN mutant R263K, Table 6
  EC50: 0.0104 ± 0.0014 µM
[1]; Human immunodeficiency virus 1, HXB2, IN mutant S119R (DTG selection)
  EC50: 0.015 ± 0.005 µM
[1]; Human immunodeficiency virus 1, HXB2, IN mutant S119R/R263K (DTG selection)
  EC50: 0.012 ± 0.002 µM
[1]; Human immunodeficiency virus 1, HXB2, IN mutant S153Y (DTG selection)
  EC50: 0.015 ± 0.004 µM
[1]; Human immunodeficiency virus 1, HXB2, IN mutant S153Y/R263K (DTG selection)
  EC50: 0.022 ± 0.002 µM
[1]; Human immunodeficiency virus 1, HXB2, IN mutant Y143R
  EC50: 0.418 ± 0.151 µM
[1]; Human immunodeficiency virus 1, HXB2, WT (HXB2), Table 6, read-out: EC50
  EC50: 0.0094 ± 0.0014 µM
[1]; Human immunodeficiency virus 1, HXB2, WT (HXB2), Table 7, read-out: EC50
  EC50: 0.0071 ± 0.0011 µM
[1]; all BIC-selected variants
  cross-resistance of BIC-selected variants: < 8 fold
[2]; HIV-1-IIIb (reference)
  Fold-Resistance Relative to HIV-1 IIIb: 1 fold
[2]; 480 h, selected virus EVG P2 (day 20, 7.2 nM)
  EC50: 0.0259 µM
[2]; HIV-1-IIIb (unselected)
  EC50: 0.0088 µM
[2]; selected virus BIC P3 (day 47, 6 nM)
  EC50: 0.0181 µM
[2]; selected virus BIC P5 (day 71, 12 nM)
  EC50: 0.0183 µM
[2]; selected virus BIC P6 (day 86, 24 nM)
  EC50: 0.0244 µM
[2]; selected virus BIC P8 (day 156, 96 nM)
  EC50: 0.0288 µM
[2]; selected virus BIC P9 (day 181, 192 nM)
  EC50: 0.0417 µM
[2]; selected virus BIC P10 (day 234, 384 nM)
  EC50: 0.0293 µM
[2]; selected virus DTG P3Lo (day 59, 6.4 nM)
  EC50: 0.0118 µM
[2]; selected virus DTG P4 (day 87, 9.6 nM)
  EC50: 0.0232 µM
[2]; selected virus DTG P5 (day 97, 14.4 nM)
  EC50: 0.028 µM
[2]; selected virus DTG P7 (day 139, 32.4 nM)
  EC50: 0.0397 µM
[2]; selected virus DTG P9 (day 174, 72.9 nM)
  EC50: 0.043 µM
[2]; selected virus DTG P10 (day 202, 109.4 nM)
  EC50: 0.0569 µM
[2]; selected virus EVG P4 (day 41, 28.8 nM)
  EC50: 0.0269 µM
[2]; selected virus EVG P6 (day 56, 115 nM)
  EC50: 0.0199 µM
[2]; selected virus EVG P7 (day 67, 230 nM)
  EC50: 0.0287 µM
[2]; selected virus EVG P9 (day 94, 922 nM)
  EC50: 0.0449 µM
[2]; selected virus EVG P10 (day 119, 1843 nM)
  EC50: 0.017 µM
[2]; selected virus BIC P3
  Fold-Resistance Relative to HIV-1 IIIb: 2 fold
[2]; selected virus BIC P5
  Fold-Resistance Relative to HIV-1 IIIb: 2.1 fold
[2]; selected virus BIC P6
  Fold-Resistance Relative to HIV-1 IIIb: 2.8 fold
[2]; selected virus BIC P8
  Fold-Resistance Relative to HIV-1 IIIb: 3.3 fold
[2]; selected virus BIC P9
  Fold-Resistance Relative to HIV-1 IIIb: 4.7 fold
[2]; selected virus BIC P10
  Fold-Resistance Relative to HIV-1 IIIb: 3.3 fold
[2]; selected virus DTG P3Lo
  Fold-Resistance Relative to HIV-1 IIIb: 1.3 fold
[2]; selected virus DTG P4
  Fold-Resistance Relative to HIV-1 IIIb: 2.6 fold
[2]; selected virus DTG P5
  Fold-Resistance Relative to HIV-1 IIIb: 3.2 fold
[2]; selected virus DTG P7
  Fold-Resistance Relative to HIV-1 IIIb: 4.5 fold
[2]; selected virus DTG P9
  Fold-Resistance Relative to HIV-1 IIIb: 4.9 fold
[2]; selected virus DTG P10
  Fold-Resistance Relative to HIV-1 IIIb: 6.4 fold
[2]; selected virus EVG P2
  Fold-Resistance Relative to HIV-1 IIIb: 2.9 fold
[2]; selected virus EVG P4
  Fold-Resistance Relative to HIV-1 IIIb: 3.0 fold
[2]; selected virus EVG P6
  Fold-Resistance Relative to HIV-1 IIIb: 2.3 fold
[2]; selected virus EVG P7
  Fold-Resistance Relative to HIV-1 IIIb: 3.3 fold
[2]; selected virus EVG P9
  Fold-Resistance Relative to HIV-1 IIIb: 5.1 fold
[2]; selected virus EVG P10
  Fold-Resistance Relative to HIV-1 IIIb: 1.9 fold
[3]
  Frequency of Viral Breakthrough with RAMs: 58%
  p24+ Wells: 12/12
